What was measured:
[1] = Tissue distribution of 1α,25-dihydroxyvitamin D3 after intratracheal (pulmonary) delivery; assay type: in vivo, Sprague Dawley rats
Excerpt: Sprague Dawley and Brown Norway male rats aged 6-7 weeks were obtained from Harlan Sprague-Dawley (Madison, Wis.) and housed in shoebox cages. Animals were provided a purified rodent diet prepared in-house containing 0.47% calcium and 0.3% phosphorus, and water ad libitum. The diet was supplemented with 1.6 IU vitamin D3/g diet. […] Formulation A was an aqueous solution containing 30% propylene glycol and 5% ethanol at pH 7.0. Formulation B was also an aqueous solution further containing 0.4% TWEEN polysorbate 20 [1 mL of solution contains: 4 mg Tween Polysorbate 20, 1.5 mg sodium chloride, 10 mg sodium ascorbate, 7.6 mg sodium phosphate (dibasic), 1.8 mg sodium phosphate (monodibasic) and 1.1 mg disodium […]], pH 7.0. Intratracheal delivery of 1α,25-dihydroxyvitamin D3. 5 μCi of 1α,25-dihydroxyvitamin D3 was delivered intratracheally to anesthetized (isoflurane) Sprague Dawley rats by using the MicroSprayerTM Model 1C following the manufacturer's protocol (PennCentury, Philadelphia, Pa). The device included a stainless steel tube measuring 0.64 mm in diameter attached to a high-pressure syringe (Model FMJ-250, PennCentury). An atomizer at the very tip of the tube generated the aerosol plume. The MicroSprayerTM was inserted deep into the trachea allowing delivery of aerosolized compounds into the lungs. 1α,25-dihydroxyvitamin D3 was administered in either 100 μL (Formulation A and Formulation B) or 200 μL (Formulation A) dose volumes. As a quench control, a group of animals were dosed with either Formulation A or Formulation B. Tissue analysis. Using a duration of 4 hours and a duration of 10 minutes after administering the dose, the animals were anesthetized with isoflurane and blood was collected from the heart. The trachea, lungs and stomach were removed, dehydrated in alcohol and pulverized. Samples weighing 20-100 mg were placed in 1 mL Solvable (Packard BioScience B. V., The Netherlands) and incubated at 60° C. overnight. Next, 10 mL of Optima Gold (Perkin Elmer, Boston, Mass.) was added to the samples, and radioactivity was measured using a liquid scintillation analyzer (TRI-CARB 2100 TR, Packard). To determine the presence of 1α,25-dihydroxyvitamin D3 in the blood, 200-300 μL of serum in 10 mL Optima Gold was used for scintillation counting.

serum calcium levels = experiment: Effect of aerosolized 1α,25-dihydroxyvitamin D3 on serum calcium levels; assay type: in vivo, Brown Norway rats; conditions: Formulation A, intratracheal 200 μL doses on Day 0 and Day 2, blood 24 h after last dose
Excerpt: Sprague Dawley and Brown Norway male rats aged 6-7 weeks were obtained from Harlan Sprague-Dawley (Madison, Wis.) and housed in shoebox cages. Animals were provided a purified rodent diet prepared in-house containing 0.47% calcium and 0.3% phosphorus, and water ad libitum. The diet was supplemented with 1.6 IU vitamin D3/g diet. […] Formulation A was an aqueous solution containing 30% propylene glycol and 5% ethanol at pH 7.0. Formulation B was also an aqueous solution further containing 0.4% TWEEN polysorbate 20 [1 mL of solution contains: 4 mg Tween Polysorbate 20, 1.5 mg sodium chloride, 10 mg sodium ascorbate, 7.6 mg sodium phosphate (dibasic), 1.8 mg sodium phosphate (monodibasic) and 1.1 mg disodium […]], pH 7.0. Effectiveness of Aerosol Delivery of Vitamin D to Pulmonary Tree. 1α,25-dihydroxyvitamin D3 effect on serum calcium levels in Brown Norway rats was determined. Delivery of 1α,25-dihydroxyvitamin D3 (i.e., in vivo activity) was measured to determine the effect of aerosolized 1α,25-dihydroxyvitamin D3 treatment on serum calcium levels. Formulation A containing 1α,25-dihydroxyvitamin D3 was intra-tracheally delivered in 200 μL doses on Day 0 (Day 0 was the first day of treatment) and Day 2. […] Calcium levels were determined by atomic absorption spectroscopy of the serum diluted 0.1% lanthum chloride using a Perkin Elmer Model 3110.

[2] = Formulation A, 100 μL dose, after 10 minutes
[3] = Formulation B, 100 μL dose, after 10 minutes

## C=C1/C(=C\C=C2/CCC[C@]3(C)[C@@H]([C@H](C)CCCC(C)(C)O)CC[C@@H]23)C[C@@H](O)C[C@@H]1O [1α,25-dihydroxyvitamin D3]
[1]; [2]
  detected 1α,25-dihydroxyvitamin D3 found in the serum: 53%
  detected 1α,25-dihydroxyvitamin D3 found in the stomach: ~1%
  detected 1α,25-dihydroxyvitamin D3 found in the trachea and lungs: 46%
[1]; Formulation A, after 4 hours
  detected 1α,25-dihydroxyvitamin D3 found in the serum: 60%
  detected 1α,25-dihydroxyvitamin D3 found in the stomach: 36%
  detected 1α,25-dihydroxyvitamin D3 found in the trachea and lungs: Less than 5%
[1]; [3]
  detected 1α,25-dihydroxyvitamin D3 found in the serum: 51%
  detected 1α,25-dihydroxyvitamin D3 found in the stomach: less than 4%
  detected 1α,25-dihydroxyvitamin D3 found in the trachea and lungs: 33%
[1]; Formulation B, after 4 hours
  1α,25-dihydroxyvitamin D3 detected in serum (% of total): 56%
  1α,25-dihydroxyvitamin D3 detected in stomach (% of total): 35%
Serum calcium levels; 1 μg/kgBW
  increase of serum calcium levels: 2.8 mg/dL
Serum calcium levels; 10 μg/kgBW
  increase of serum calcium levels: 4 mg/dL

Reference: patent US20080031957A1, “Pulmonary delivery of 1alpha,25-dihydroxyvitamin D3 and co-administration of parathyroid hormone or calcitonin” (priority 2006, published 2008)
